Here are results for ten compounds from US20210346354A1, “MACROPINOCYTOSIS IN CANCER” (Memorial Sloan-Kettering Cancer Center, priority 2015, published 2021).

Numbered stars: 1 amine (or outer) side, 2 acyl side, 3 side chain; on linkers, the order of the positions; unused ones are H or OH. Bridge positions count the residues as written; N and C are the ends. Square brackets hold non-standard residues; d marks the D form. Peptide text beside a SMILES is read from it. I, II: the chains in the order shown. Actinocin(9to1) = Cc1c2oc3c(C)ccc(C(=O)[*:1])c3nc-2c(C(=O)[*:2])c(N)c1=O; NMeV = CN[C@H](C(=O)O)C(C)C; Sar = CNCC(=O)O

The subject of one series is mTORC1. Briefly: mTORC1 re-activation after 1 h EAA starvation, Western blotting against phosphorylated S6K1. To be noted: for albumin-dependent mTORC1 activation: 3% albumin. The format is cell-based, mouse. Here is the method: Cells were rinsed with ice-cold PBS and detached from culture plates by incubation with ice-cold trypsin (0.05%). Trypsin was inactivated with ice-cold serum, cells pelleted and rinsed with ice cold PBS. Cells were lysed in ice-cold lysis buffer [50 mM HEPES, pH 7.4, 40 mM […], 2 mM EDTA, 1 mM Na Orthovandanate, 50 mM NaF, 10 mM Na Pyrophosphate, 10 mM Na Glycerophosphate, 1% Triton X-100, 1×Halt protease and phosphatase inhibitor cocktails (Thermo Scientific)] for 15 min, and soluble lysate fractions isolated by centrifugation at 16,000 g for 10 min. Protein concentrations were determined with the Pierce BCA Protein Assay (Thermo Scientific) and equal amounts of proteins analyzed by SDS gel electrophoresis and Western blotting following standard protocols.
(§1) Cell culture experiments were performed at 37° C. and 5% CO2 in DMEM/F12 with 10% dialyzed FBS (molecular weight cut-off 10,000; Gemini Biosystems), 100 U/mL penicillin, 100 μg/mL streptomycin, 5 mM glucose and 2 mM glutamine. For proliferation assays, MEFs were plated in complete medium, 5 h later briefly rinsed and then cultured in starvation medium as indicated. For EAA titration experiments, EAAs were supplemented at indicated percentages of 1×MEM amino acid solution (M5550, Sigma). Cancer cell lines were cultured in complete medium for 1 day prior to starvation. Numbers of adherent cells, which are >95% viable as assessed by Trypan Blue exclusion were determined using a Multisizer 4 Coulter Counter (Beckman). For mTOR activation and localization experiments, cells were rinsed and then incubated in EAA starvation medium (DMEM/F12 lacking all amino acids except glutamine) for 1 h, and subsequently placed in medium supplemented with EAAs (1×MEM amino acid solution), albumin (3%, if not stated otherwise) or fresh EAA-free starvation medium for indicated periods of time.
Cells can sense EAAs through the mTORC1 pathway, which integrates amino acid levels with inputs from growth factor signaling to promote cell growth (Ma and Blenis, 2009; Shimobayashi and Hall, 2014). When cells are placed in EAA-free medium, the ability of mTORC1 to phosphorylate downstream targets is repressed. To test if catabolism of extracellularly provided proteins could restore mTORC1 activity in the absence of EAAs, mTORC1 was inactivated by subjecting MEFs to 1 h EAA starvation. Fresh medium containing EAAs or different concentrations of albumin was then added and mTORC1 re-activation assessed by Western blotting against phosphorylated S6K1.
In general terms: A western blot detects proteins with antibodies after separation by electrophoresis.

The subject of a further series is mTOR. As to the kind of experiment: Lysosomal recruitment of mTOR, immunofluorescence against mTOR and LAMP2. The format is cell-based, mouse. The following applies: K-Ras^G12D MEFs. As to the method: For immunostainings, cells were rinsed with ice-cold PBS, fixed with 4% formaldehyde in PBS for 15 min and permeabilized with 0.05% Triton X-100 in PBS. After rinsing with PBS, cells were blocked with PBG (0.5% BSA, 0.2% cold water fish gelatin in PBS) for 30 min, incubated with primary antibodies in PBG for 1.5 h, washed two times with PBG+4% normal goat serum and then incubated with secondary antibodies in PBG+4% NGS for 45 min. After three washes with PBS, cells were mounted on microscope slides with Prolong Antifade+DAPI and imaged using a Leica TCS SP5-II.
as §1, with “For mTOR activation and localization experiments, cells were rinsed and then incubated in EAA starvation medium (DMEM/F12 lacking all amino acids except glutamine) for 1 h, and subsequently placed in medium supplemented with EAAs (1×MEM amino acid solution), albumin (3%, if not stated otherwise) or fresh EAA-free starvation medium for indicated periods of time.” left out

Series [1] concerns K-Ras^G12D MEFs. Briefly: Lysosomal degradation of DQ-BSA (fluorescence dequenching) in K-Ras^G12D MEFs. To be noted: for torin 1-induced increase in DQ-BSA fluorescence when transcription is blocked: 5 μg/ml actinomycin D or 1 μM triptolide, 30 min pre-treatment, 6 h DQ-BSA. Type of series: cell-based, mouse. Here is the method:
For live imaging, medium was supplemented with 0.3 mg/ml DQ Green BSA. 1 h prior to imaging, 50 nM LysoTracker Red and 0.2 μg/ml Hoechst were added. Cells were imaged either immediately after addition of DQ-BSA and torin 1, or after 5-6 h incubation using a Zeiss LSM 5 LIVE.
To characterize how cells derive leucine from extracellular proteins, cellular albumin uptake was investigated using constitutively fluorescent albumin and intracellular albumin proteolysis using a self-quenched albumin that emits fluorescence upon degradation (DQ-BSA) (Reis et al., 1998). […] It was then determined whether lysosomal albumin degradation was required to support growth during leucine starvation. […] Ras GTPases can promote cellular uptake of macromolecules through macropinocytosis (Bar-Sagi and Feramisco, 1986). […] To investigate whether this endocytic pathway contributed to albumin-dependent growth, cells were treated with the Na^+/H^+ exchange inhibitor EIPA, which blocks macropinocytosis but not other endocytic pathways (West et al., 1989).
To distinguish these possibilities, it was first tested whether mTORC1 inhibition increased internalization of extracellular macromolecules. […] It was next examined whether mTORC1 inhibition affected lysosomal degradation of internalized proteins.

The conditions of series [2]: background statement; cited from earlier work.
Series [3] deals with K-Ras^G12D MEFs. Briefly: Proliferation assay (cell numbers) of K-Ras^G12D MEFs in starvation medium. The format is cell-based, mouse. As to the method:
as §1

For another series, the system named is wild type MEFs. As to the kind of experiment: Proliferation assay (cell numbers) of wild type MEFs in starvation medium. Type of series: cell-based, mouse. Here is the method:
as §1

The subject of series [4] is wild type and heterozygous K-Ras^G12D MEFs. As to the kind of experiment: Cell numbers of wild type and K-Ras^G12D MEFs in medium lacking nutrients ±3% albumin. The format is cell-based, mouse. To be noted: for cell viability: 3% albumin supplementation. As to the method:
The dashed line indicates starting cell numbers. # below detection limit. *p<0.05, ** p<0.01, ***p<0.001. […] Data are represented as mean±STDEV (n=3).
as §1
To investigate whether activation of K-Ras signaling altered a cell's ability to metabolize extracellular proteins, we compared immortalized mouse embryonic fibroblasts (MEFs) harboring wild type K-Ras or a constitutively active K-Ras^G12D allele. Albumin is the major protein in plasma and interstitial fluids, its levels ranging from 2-5%. To mimic the protein-rich composition of extracellular fluids, culture medium was therefore supplemented with 10% dialyzed fetal bovine serum ±3% albumin.

Setting [5] is: K-Ras^G12D MEFs, inhibitor added at onset of starvation.
[6] abbreviates: EAAs at 5% of the levels in complete medium, 3% albumin.
The mark [7] stands for this setting: 3% albumin after 1 h EAA starvation.

With `CO/C1=C\C(C)=C\[C@@H](C)[C@@H](O)[C@@H](C)C/C(C)=C/C=C/[C@H](OC)[C@@H]([C@@H](C)[C@@H](O)[C@H](C)[C@@]2(O)C[C@@H](O)[C@H](C)[C@@H](C(C)C)O2)OC1=O` [bafilomycin A1], in the series with mTORC1 (setting [5]), the “albumin-dependent mTORC1 activation” value is recorded as “strongly suppressed” and the “mTORC1 activation by EAAs” value was “did not perturb”. The “movement of mTOR to lysosomal membranes in response to albumin” value in the series with mTOR (200 nM bafilomycin A1 added at onset of EAA starvation) is on record as “completely blocked”.
For `C/C1=C\[C@H](C)C[C@H](C)OC(=O)C[C@H](c2ccc(O)cc2)NC(=O)[C@@H](Cc2c(Br)[nH]c3ccccc23)N(C)C(=O)[C@H](C)NC(=O)[C@@H](C)C1` [jasplakinolide], the “albumin-dependent mTORC1 activation” value in the series on mTORC1 (setting [5]) is reported as “strongly reduced”.
Take `CC(C)[C@]12O[C@H]1[C@@H]1O[C@]13[C@]1(O[C@H]1C[C@H]1C4=C(CC[C@@]13C)C(=O)OC4)[C@@H]2O` [triptolide]: the “torin 1-induced increase in DQ-BSA fluorescence when transcription is blocked” value in the series on K-Ras^G12D MEFs [1] is on record as “unaffected”.
As to `CO[C@H]1C[C@@H]2CC[C@@H](C)[C@@](O)(O2)C(=O)C(=O)N2CCCC[C@H]2C(=O)O[C@H]([C@H](C)C[C@@H]2CC[C@@H](O)[C@H](OC)C2)CC(=O)[C@H](C)/C=C(\C)[C@@H](O)[C@@H](OC)C(=O)[C@H](C)C[C@H](C)/C=C/C=C/C=C/1C` [rapamycin], in series [2], the stability result was “not very stable”.
Turning to `CCN(CC)CCCC(C)Nc1ccnc2cc(Cl)ccc12` (centres unmarked) [chloroquine], the “DQ-BSA degradation in torin 1-treated cells” value in the series on K-Ras^G12D MEFs [1] (250 nM torin 1 plus 20 μM chloroquine or protease inhibitors, 6 h) is recorded as “abrogated DQ-BSA degradation”.
In the case of `C=C1[C@@H](C)[C@H]2[C@H](Cc3ccccc3)NC(=O)[C@]23[C@H](OC(C)=O)/C=C/[C@@](C)(O)C(=O)[C@@H](C)C/C=C/[C@H]3[C@@H]1O` [cytochalasin D], the “albumin-dependent mTORC1 activation” value in the series on mTORC1 (setting [5]) is “strongly reduced”.
Take “albumin: bovine serum albumin (A1470, Sigma) added to medium as extracellular protein nutrient”: the cell proliferation result is “significant increase in proliferation” in the series on K-Ras^G12D MEFs [3] (setting [6]); “able to sustain proliferation” with K-Ras^G12D MEFs [3] (leucine-free medium containing 3% albumin, several consecutive days); “ceased to proliferate, regardless of the presence of 3% albumin” in series [4] (glucose-free medium ±3% albumin). In the series with K-Ras^G12D MEFs [3] (low-EAA medium (5% EAAs)), the “albumin concentration at which proliferation could be sustained” value is given as “at least 1%”. For the same compound, the proliferation rate result in the series with K-Ras^G12D MEFs [3] (low-EAA medium, albumin concentration raised to 3%) is reported as “increased progressively”. For the same compound, the cell numbers result in the series with K-Ras^G12D MEFs [3] (medium lacking glutamine, 3% albumin supplementation) was “increase in cell numbers, albeit to a minor extent”. The cell viability result in the series with K-Ras^G12D MEFs [3] (medium lacking isoleucine, lysine, or arginine, physiological levels of albumin (3%)) is reported as “rescued cell viability”; with wild type MEFs (low-EAA medium, increasing albumin levels (1-3%)), “improved viability”; in series [4] (non-essential amino acid (NEAA) starvation), “modestly improved viability”; in series [4] (starved for leucine), “completely restored”. Besides, the survival and proliferation entry with wild type MEFs (setting [6]) was “improved survival of wild type MEFs, but did not support their proliferation”. Besides, in the series on mTORC1 (setting [7]), the “time after which mTORC1-dependent phosphorylation resumed” value was 2 h. For the same compound, the “time to maximal levels of mTORC1-dependent phosphorylation” value in the series with mTORC1 (setting [7]) is reported as 4 h. For the same compound, the S6K1 phosphorylation result in the series on mTORC1 (wild type and K-Ras^G12D MEFs, EAA-free medium with 1-3% albumin) is “concentration-dependent increase in S6K1 phosphorylation”. For the same compound, the “subcellular localization of mTOR” value in the series on mTOR (1 h EAA starvation, then 3% albumin) was “localized to punctate structures that were marked by the lysosomal membrane protein LAMP2”. Moreover, in series [4] (medium lacking all essential amino acids (EAAs), 3% albumin), the cell survival entry is reported as “striking rescue of cell survival”.
For `Oc1ccc2ccccc2c1SSc1c(O)ccc2ccccc12` [IPA-3], in the series with mTORC1 (setting [5]), the “albumin-dependent mTORC1 activation” value is “strongly reduced”.
As for `Cc1c2oc3c(C)ccc(C(=O)N[C@@H]4C(=O)N[C@H](C(C)C)C(=O)N5CCC[C@H]5C(=O)N(C)CC(=O)N(C)[C@@H](C(C)C)C(=O)O[C@@H]4C)c3nc-2c(C(=O)N[C@@H]2C(=O)N[C@H](C(C)C)C(=O)N3CCC[C@H]3C(=O)N(C)CC(=O)N(C)[C@@H](C(C)C)C(=O)O[C@@H]2C)c(N)c1=O` [actinomycin D] (I: T[dV]P[Sar][NMeV] / II: T[dV]P[Sar][NMeV]; ester I:1-I:C, II:1-II:C; linker I:N-II:N via Actinocin(9to1)), the “torin 1-induced increase in DQ-BSA fluorescence when transcription is blocked” value in the series on K-Ras^G12D MEFs [1] is reported as “unaffected”.
In the case of `CCN(c1nc(N)c(C(=O)NC(=N)N)nc1Cl)C(C)C` [EIPA], the cell proliferation entry with K-Ras^G12D MEFs [3] (EIPA treatment with free leucine added to culture medium) was “restored”; with K-Ras^G12D MEFs [3] (leucine-free medium +3% albumin, 25 μM EIPA, day 3) it was “strongly decreased”. Besides, the “albumin-dependent mTORC1 activation” value in the series on mTORC1 (setting [5]) is listed as “strongly reduced”.
